# Results reported in patent US20170296457A1, “PRODUCTS AND METHODS FOR TREATING PERIORBITAL DYSCHROMIA” (The Procter & Gamble Company, priority 2016, published 2017).
# Test system: B16-F1 mouse melanoma cell line
# Assay: B16 melanin synthesis inhibition assay
# Format: cell-based
# Conditions: B16-F1 cells, OD at 410 nm
# Description: In this example, a commercially available B16-F1 mouse melanoma cell line from American Tissue Culture Collection, Virginia, USA was employed in a conventional melanin synthesis inhibition assay. The cell culture medium used in the assay is 500 mL of Dulbecco's Modified Eagle's Medium (DMEM), 50 mL Fetal Bovine Serum (FBS), and 5 mL of penicillin-streptomycin liquid. B16-F1 cells that are cultured in this medium and grown to greater than 90% confluency will synthesize melanin. While not intending to be bound by any theory, it is hypothesized that the melanin synthesis is stimulated by the culture medium and/or stress induced by growth to a high confluency. […] Equipment used in the assay include a CO2 incubator, such as a Forma Series Model 3110 by Therma Scientific, Massachusetts, USA; a hemocytometer, such as a Bright Line model by Hauser Scientific, Pennsylvania, USA; and a UV-Visible Spectrum Plate Reader, such as a SpectraMax250 from Molecular Devices, California, USA. […] Day 3: The cells from the T-150 flask are trypsinized, and the concentration of cells is determined using the hemacytometer. […] Read the 96 well plate using the UV-Vis Plate Reader at 410 nm to optically measure the amount of melanin produced between wells that are treated with the pumpkin seed extract and control wells that are not. […] The concentration of test agent needed to provide the IC 50 is recorded.
smiles,measurement,value
Oc1ccc(OC2CCCCO2)cc1 (stereo not shown) [Deoxyarbutin],Concentration Needed for IC 50 (v/v),0.008 v/v
